We go through nine compounds from ChEMBL document CHEMBL5532714, “Discovery of Kebanmycins with Antibacterial and Cytotoxic Activities from the Mangrove-Derived Streptomyces sp. SCSIO 40068” (J Nat Prod, 2024).

Data set [1] is described as follows: (§1) Cytotoxicity against human HepG2 cells assessed as cell growth inhibition. In kind it is toxicity, cell-based. As to conditions: HepG2 cells.
Data set [2] concerns Staphylococcus aureus. Put plainly: Antibacterial activity against methicillin-resistant Staphylococcus aureus shhs-A1 assessed as bacterial growth inhibition incubated for 16 hrs by broth microdilution method. The format is functional. For orientation: Dilution methods test growth across graded concentrations, often in twofold steps.
In a further data set the test system is Acinetobacter baumannii. Put plainly: Antibacterial activity against Acinetobacter baumannii 19606 assessed as bacterial growth inhibition incubated for 16 hrs by broth microdilution method. The format is functional.
Data set [3] concerns Staphylococcus aureus. Put plainly: Antibacterial activity against methicillin-resistant Staphylococcus aureus 991 assessed as bacterial growth inhibition incubated for 16 hrs by broth microdilution method. In kind it is functional.
In the next data set the test system is Vibrio alginolyticus. Put plainly: Antibacterial activity against Vibrio alginolyticus ATCC 13214 assessed as bacterial growth inhibition incubated for 16 hrs by broth microdilution method. In kind it is functional.
Data set [4] concerns Staphylococcus aureus. Put plainly: Antibacterial activity against Staphylococcus aureus ATCC 29213 assessed as bacterial growth inhibition incubated for 16 hrs by broth microdilution method. In kind it is functional.
A short description of data set [5]: (§2) Cytotoxicity against human MCF7 cells assessed as cell growth inhibition. As to conditions: MCF7 cells. The format is toxicity, cell-based.
In data set [6] the test system is Staphylococcus aureus. Put plainly: Antibacterial activity against methicillin-resistant Staphylococcus aureus 669 assessed as bacterial growth inhibition incubated for 16 hrs by broth microdilution method. The format is functional.
A further data set has as its system Bacillus subtilis. Nature of the data set: Antibacterial activity against Bacillus subtilis 1064 assessed as bacterial growth inhibition incubated for 16 hrs by broth microdilution method. In kind it is functional.
Data set [7] has as its system Staphylococcus aureus. Put plainly: Antibacterial activity against methicillin-resistant Staphylococcus aureus 1862 assessed as bacterial growth inhibition incubated for 16 hrs by broth microdilution method. In kind it is functional.
A further data set deals with MCF7. Described as §2. As to conditions: mcf7. The format is toxicity, cell-based.
The next data set has as its system HepG2. The data set is described as §1. In kind it is toxicity, cell-based. As to conditions: hepg2.

Converted amounts (≈) assume the structure as drawn. Counter-ions that a name gives are not always drawn.

`COc1cccc2c1C(=O)c1c(O)c3c(c(O)c1C2=O)C[C@@](O)(C(=O)CO)C[C@@H]3O[C@H]1C[C@H](N)[C@H](O)[C@H](C)O1` [DOXORUBICIN HYDROCHLORIDE]: the IC50 – broadly, the concentration that gives 50% inhibition – in data set [1] amounted to 3.1 µM.
In the case of `CCC[C@@H]1Cc2cc3c(c(O)c2C(=O)O1)-c1c(c(OC)c2oc4ccc(O[C@H]5C[C@@H](O)[C@H](O)[C@@H](C)O5)c(O)c4c(=O)c2c1O)[C@H](O)[C@H]3O`, the MIC (in general, the lowest concentration found to suppress growth) was 0.5 µg/mL (≈ 0.75 µM) with Staphylococcus aureus [2]; > 64 µg/mL in the data set on Acinetobacter baumannii; 2 µg/mL (≈ 3 µM) in the data set with Staphylococcus aureus [3]; > 64 µg/mL in the data set with Vibrio alginolyticus; 0.5 µg/mL (≈ 0.75 µM) in the data set on Staphylococcus aureus [4]; 2 µg/mL (≈ 3 µM) in the data set on Staphylococcus aureus [6]. In addition, the minimal inhibitory concentration (MIC) was determined as 4 µg/mL (≈ 6 µM) with Bacillus subtilis and 1 µg/mL (≈ 1.5 µM) with Staphylococcus aureus [7]. Also, the IC50 amounted to 0.76 µM in data set [5] and 31 µM in data set [1].
As for `O=C(O)c1cn(C2CC2)c2cc(N3CCNCC3)c(F)cc2c1=O` [CIPROFLOXACIN], the minimal inhibitory concentration (MIC) in the data set on Acinetobacter baumannii and with Vibrio alginolyticus was 0.125 µg/mL (≈ 0.377 µM) each time.
Take `CN[C@H](CC(C)C)C(=O)N[C@H]1C(=O)N[C@@H](CC(N)=O)C(=O)N[C@H]2C(=O)N[C@H]3C(=O)N[C@H](C(=O)N[C@H](C(=O)O)c4cc(O)cc(O)c4-c4cc3ccc4O)[C@H](O)c3ccc(c(Cl)c3)Oc3cc2cc(c3O[C@@H]2O[C@H](CO)[C@@H](O)[C@H](O)[C@H]2O[C@H]2C[C@](C)(N)[C@H](O)[C@H](C)O2)Oc2ccc(cc2Cl)[C@H]1O` [VANCOMYCIN]: in the data set on Bacillus subtilis, the MIC was found to be 0.25 µg/mL (≈ 0.173 µM).
Regarding `CCC[C@@H]1Cc2cc3c(c(O)c2C(=O)O1)-c1c(c(OC)c2oc4ccc(O[C@H]5C[C@@H](O)[C@H](O[C@H]6C[C@@H](O)[C@H](O[C@H]7C[C@@H](O)[C@H](O)[C@@H](C)O7)[C@@H](C)O6)[C@@H](C)O5)c(O)c4c(=O)c2c1O)[C@H](O)[C@H]3O`, the minimal inhibitory concentration (MIC) in the data set with Staphylococcus aureus [2] was 2 µg/mL (≈ 2.16 µM); in the data set on Acinetobacter baumannii, > 64 µg/mL; in the data set on Staphylococcus aureus [3] it was 2 µg/mL (≈ 2.16 µM); with Vibrio alginolyticus, > 64 µg/mL; in the data set with Staphylococcus aureus [4], 2 µg/mL (≈ 2.16 µM); in the data set with Staphylococcus aureus [6], 2 µg/mL (≈ 2.16 µM). Besides, the minimal inhibitory concentration (MIC) with Bacillus subtilis and in the data set on Staphylococcus aureus [7] was 1 µg/mL (≈ 1.08 µM) in each case. Moreover, the figures for the IC50 in [5] and in data set [1] were 1.8 µM and 4.4 µM, respectively.
In the case of `CCC[C@@H]1Cc2cc3c(c(O)c2C(=O)O1)-c1c(c(OC)c2oc4ccc(O[C@H]5C[C@@H](O)[C@H](O[C@H]6C[C@@H](O)[C@H](O[C@H]7C[C@@H](OC)[C@H](O)[C@@H](C)O7)[C@@H](C)O6)[C@@H](C)O5)c(O)c4c(=O)c2c1O)C[C@H]3O`, the MIC in the data set on Staphylococcus aureus [2] is 0.125 µg/mL (≈ 0.135 µM); in the data set with Acinetobacter baumannii it was > 64 µg/mL; in the data set with Staphylococcus aureus [3] it was 0.5 µg/mL (≈ 0.541 µM); in the data set on Vibrio alginolyticus, > 64 µg/mL; with Staphylococcus aureus [4] it was 0.125 µg/mL (≈ 0.135 µM); in the data set with Staphylococcus aureus [6] it was 0.5 µg/mL (≈ 0.541 µM). Moreover, the MIC in the data set on Bacillus subtilis is > 64 µg/mL; in the data set with Staphylococcus aureus [7] it was 0.125 µg/mL (≈ 0.135 µM). For the same compound, the IC50 in data set [5] stood at 0.12 µM; in [1] it was 0.25 µM.
Turning to `CCC[C@@H]1Cc2cc3c(c(O)c2C(=O)O1)-c1c(c(OC)c2oc4ccc(O[C@H]5C[C@@H](O)[C@H](O[C@H]6C[C@@H](O)[C@H](O[C@H]7C[C@@H](OC)[C@H](O)[C@@H](C)O7)[C@@H](C)O6)[C@@H](C)O5)c(O)c4c(=O)c2c1O)[C@H](O)[C@H]3O`, the minimal inhibitory concentration (MIC) with Staphylococcus aureus [2] is 2 µg/mL (≈ 2.13 µM); in the data set with Acinetobacter baumannii it was > 64 µg/mL; in the data set with Staphylococcus aureus [3], 1 µg/mL (≈ 1.06 µM); with Vibrio alginolyticus it was > 64 µg/mL; in the data set with Staphylococcus aureus [4], 2 µg/mL (≈ 2.13 µM); in the data set on Staphylococcus aureus [6] it was 2 µg/mL (≈ 2.13 µM). Besides, the values for the minimum inhibitory concentration (MIC) with Bacillus subtilis and in the data set with Staphylococcus aureus [7] were 0.125 µg/mL (≈ 0.133 µM) and 1 µg/mL (≈ 1.06 µM), respectively. In addition, the 50% inhibitory concentration (IC50) in [5] worked out at 4.1 µM; in data set [1], 7.9 µM.
Consider `CCC[C@@H]1Cc2cc3c(c(O)c2C(=O)O1)-c1c(c(OC)c2oc4ccc(O)c(O)c4c(=O)c2c1O)[C@H](O)[C@H]3O`, for which the MIC in the data set on Staphylococcus aureus [2] is 8 µg/mL (≈ 14.9 µM); in the data set on Acinetobacter baumannii, 64 µg/mL (≈ 119 µM); in the data set with Staphylococcus aureus [3] it was 8 µg/mL (≈ 14.9 µM); with Vibrio alginolyticus it was 32 µg/mL (≈ 59.6 µM); with Staphylococcus aureus [4] it was 8 µg/mL (≈ 14.9 µM); in the data set on Staphylococcus aureus [6] it was 8 µg/mL (≈ 14.9 µM). Besides, the MIC is 16 µg/mL (≈ 29.8 µM) in the data set with Bacillus subtilis and 4 µg/mL (≈ 7.46 µM) with Staphylococcus aureus [7]. In addition, the IC50 in [5] amounted to 0.46 µM; in [1] it was 13 µM.
For `CCCC(=O)Cc1cc2c(c(O)c1C(=O)O)-c1cc3c(c(O)c1CC2)C(=O)c1c(O)cc(O)cc1C3=O`, the MIC in the data set with Staphylococcus aureus [2] is 16 µg/mL (≈ 31.8 µM); with Acinetobacter baumannii, > 64 µg/mL; in the data set with Staphylococcus aureus [3], 16 µg/mL (≈ 31.8 µM); in the data set with Vibrio alginolyticus it was > 64 µg/mL; in the data set with Staphylococcus aureus [4], 32 µg/mL (≈ 63.7 µM); with Staphylococcus aureus [6], 16 µg/mL (≈ 31.8 µM). Besides, the minimal inhibitory concentration (MIC) in the data set on Bacillus subtilis was > 64 µg/mL; in the data set with Staphylococcus aureus [7], 16 µg/mL (≈ 31.8 µM). In addition, the Activity entry with MCF7 and with HepG2 was “Non-Toxic” in each case.
